# Key:
# Experiment in all cases: receptor profile (Table S4)
# h AdT = target: T1, h AdT (Homo sapiens, UniProt Q99808); format: binding
# T1 sequence (Q99808 2-456 limits assumed): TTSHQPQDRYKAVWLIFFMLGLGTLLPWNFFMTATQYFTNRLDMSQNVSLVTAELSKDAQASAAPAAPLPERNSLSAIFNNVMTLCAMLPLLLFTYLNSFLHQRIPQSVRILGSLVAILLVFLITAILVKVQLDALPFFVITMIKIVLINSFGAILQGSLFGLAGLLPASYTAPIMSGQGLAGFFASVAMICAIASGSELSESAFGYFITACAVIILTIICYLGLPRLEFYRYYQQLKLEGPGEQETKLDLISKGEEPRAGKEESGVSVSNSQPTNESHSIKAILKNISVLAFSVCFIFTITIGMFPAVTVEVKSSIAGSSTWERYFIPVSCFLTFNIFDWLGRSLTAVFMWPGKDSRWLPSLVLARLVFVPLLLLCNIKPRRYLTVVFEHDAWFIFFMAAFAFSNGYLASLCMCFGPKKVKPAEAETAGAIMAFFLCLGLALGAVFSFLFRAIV
# hr Ad1 = target: T2, hr Ad1 (Homo sapiens, UniProt P30542); format: binding
# T2 sequence (P30542 1-326): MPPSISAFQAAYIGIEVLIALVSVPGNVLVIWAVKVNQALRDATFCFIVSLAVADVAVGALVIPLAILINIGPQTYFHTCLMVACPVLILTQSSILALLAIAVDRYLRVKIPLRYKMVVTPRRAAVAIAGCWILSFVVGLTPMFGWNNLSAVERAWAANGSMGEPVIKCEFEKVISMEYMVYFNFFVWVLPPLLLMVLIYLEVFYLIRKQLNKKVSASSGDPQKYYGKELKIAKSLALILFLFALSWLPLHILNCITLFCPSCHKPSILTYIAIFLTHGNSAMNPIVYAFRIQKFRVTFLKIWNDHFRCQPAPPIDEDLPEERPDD
# hr OpM = hr OpM (Homo sapiens, UniProt P35372); format: binding
# Sequence of hr OpM (P35372 whole entry): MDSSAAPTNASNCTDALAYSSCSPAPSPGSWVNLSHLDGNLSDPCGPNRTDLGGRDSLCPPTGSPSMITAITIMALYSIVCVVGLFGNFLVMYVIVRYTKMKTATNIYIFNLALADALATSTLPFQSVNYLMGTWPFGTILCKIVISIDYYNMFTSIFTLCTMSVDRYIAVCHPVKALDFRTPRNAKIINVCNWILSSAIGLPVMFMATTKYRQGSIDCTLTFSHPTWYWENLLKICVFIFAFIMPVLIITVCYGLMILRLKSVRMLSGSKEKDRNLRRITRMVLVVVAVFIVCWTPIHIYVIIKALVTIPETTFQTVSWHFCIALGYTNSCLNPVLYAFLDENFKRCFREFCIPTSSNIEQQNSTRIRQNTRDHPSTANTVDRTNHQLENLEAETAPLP
# hr PR ag = target: T3, hr PR ag (Homo sapiens, UniProt P06401); format: biochemical
# T3 sequence (P06401 1-933): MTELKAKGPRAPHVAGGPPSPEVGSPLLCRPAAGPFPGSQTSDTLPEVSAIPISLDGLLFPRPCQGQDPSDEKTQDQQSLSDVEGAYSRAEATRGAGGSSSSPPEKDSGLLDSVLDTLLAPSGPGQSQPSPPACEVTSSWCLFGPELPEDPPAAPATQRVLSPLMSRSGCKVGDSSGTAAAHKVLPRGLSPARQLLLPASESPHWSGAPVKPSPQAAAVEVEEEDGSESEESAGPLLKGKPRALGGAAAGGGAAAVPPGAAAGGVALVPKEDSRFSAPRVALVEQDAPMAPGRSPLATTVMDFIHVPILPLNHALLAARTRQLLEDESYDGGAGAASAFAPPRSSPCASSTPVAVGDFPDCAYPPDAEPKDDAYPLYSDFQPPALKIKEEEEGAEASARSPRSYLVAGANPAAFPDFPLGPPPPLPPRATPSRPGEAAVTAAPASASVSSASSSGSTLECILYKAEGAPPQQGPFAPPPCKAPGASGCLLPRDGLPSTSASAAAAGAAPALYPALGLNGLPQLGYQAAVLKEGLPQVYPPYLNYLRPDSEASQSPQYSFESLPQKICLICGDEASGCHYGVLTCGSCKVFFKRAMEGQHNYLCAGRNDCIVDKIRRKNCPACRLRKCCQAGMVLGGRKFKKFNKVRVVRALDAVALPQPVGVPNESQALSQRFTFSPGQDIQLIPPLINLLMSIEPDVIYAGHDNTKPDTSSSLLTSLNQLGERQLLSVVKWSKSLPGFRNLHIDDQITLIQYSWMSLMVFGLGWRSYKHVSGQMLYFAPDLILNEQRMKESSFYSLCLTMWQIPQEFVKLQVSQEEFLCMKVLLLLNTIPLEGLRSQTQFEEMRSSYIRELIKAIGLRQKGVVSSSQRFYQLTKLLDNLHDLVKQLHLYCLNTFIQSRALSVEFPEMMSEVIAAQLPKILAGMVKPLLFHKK
# hr 5-HT2B antag = hr 5-HT2B antag (Homo sapiens, UniProt P41595); format: biochemical
# Sequence of hr 5-HT2B antag (P41595 whole entry): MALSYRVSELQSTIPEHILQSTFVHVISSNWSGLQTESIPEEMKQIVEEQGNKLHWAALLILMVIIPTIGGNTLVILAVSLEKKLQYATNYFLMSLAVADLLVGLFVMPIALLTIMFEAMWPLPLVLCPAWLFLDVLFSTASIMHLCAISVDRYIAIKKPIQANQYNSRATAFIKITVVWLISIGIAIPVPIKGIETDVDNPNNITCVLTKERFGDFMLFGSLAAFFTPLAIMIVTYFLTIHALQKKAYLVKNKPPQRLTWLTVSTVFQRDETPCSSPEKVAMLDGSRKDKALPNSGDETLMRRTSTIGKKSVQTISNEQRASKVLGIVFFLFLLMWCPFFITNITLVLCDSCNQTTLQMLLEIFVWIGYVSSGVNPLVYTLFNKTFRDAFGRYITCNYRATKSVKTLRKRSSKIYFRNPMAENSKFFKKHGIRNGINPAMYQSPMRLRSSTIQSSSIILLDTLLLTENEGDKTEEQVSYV
# hr ETa = target: T4, hr ETa (Homo sapiens, UniProt P25101); format: binding
# T4 sequence (P25101 21-427): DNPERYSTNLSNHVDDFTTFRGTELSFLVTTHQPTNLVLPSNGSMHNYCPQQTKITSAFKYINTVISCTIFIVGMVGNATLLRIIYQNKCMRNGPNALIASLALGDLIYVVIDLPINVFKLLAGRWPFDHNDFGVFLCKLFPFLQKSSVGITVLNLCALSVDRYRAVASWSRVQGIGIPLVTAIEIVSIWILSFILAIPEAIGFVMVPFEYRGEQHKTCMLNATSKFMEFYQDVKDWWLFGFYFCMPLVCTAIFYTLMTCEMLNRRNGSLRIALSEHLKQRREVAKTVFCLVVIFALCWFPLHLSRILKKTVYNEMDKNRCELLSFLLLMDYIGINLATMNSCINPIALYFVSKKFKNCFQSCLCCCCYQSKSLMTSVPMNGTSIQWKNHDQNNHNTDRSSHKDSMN
# hr CCKa = target: T5, hr CCKa (Homo sapiens, UniProt P32238); format: binding
# T5 sequence (P32238 1-428): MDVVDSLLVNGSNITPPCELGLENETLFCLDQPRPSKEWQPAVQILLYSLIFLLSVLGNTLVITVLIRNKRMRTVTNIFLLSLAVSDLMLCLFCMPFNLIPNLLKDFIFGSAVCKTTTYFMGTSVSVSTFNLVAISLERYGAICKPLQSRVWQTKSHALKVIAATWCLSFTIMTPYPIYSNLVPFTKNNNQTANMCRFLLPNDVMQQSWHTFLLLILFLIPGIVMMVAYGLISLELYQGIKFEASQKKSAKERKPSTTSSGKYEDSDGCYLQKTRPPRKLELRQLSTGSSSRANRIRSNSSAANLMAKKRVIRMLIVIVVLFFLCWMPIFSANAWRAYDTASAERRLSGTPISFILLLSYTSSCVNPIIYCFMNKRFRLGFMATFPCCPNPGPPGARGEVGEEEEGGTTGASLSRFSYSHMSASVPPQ
smiles,measurement,setting,value
"Cc1nc(C)c(C(=O)Nc2ccc(F)c(-c3nc4ncc(-c5ncccc5C)cn4n3)c2)o1 [compound 1, N-(4-Fluoro-3-(6-(3-methylpyridin-2-yl)-[1,2,4]triazolo[1,5-a]pyrimidin-2-yl)phenyl)-2,4-dimethyloxazole-5-carboxamide]",EC50/IC50,h AdT; h AdT,> 30 µM
same,inhibition at 10 µM,h AdT; read-out: % inh/act @ 10 µM,28%
same,inhibition at 30 µM,h AdT; read-out: % inh/act @ 30 µM,42%
same,EC50/IC50,hr Ad1; hr Ad1,> 30 µM
same,inhibition at 10 µM,hr Ad1; read-out: % inh/act @ 10 µM,10%
same,inhibition at 30 µM,hr Ad1; read-out: % inh/act @ 30 µM,27%
same,EC50/IC50,hr OpM; hr OpM,> 30 µM
same,inhibition at 10 µM,hr OpM; read-out: % inh/act @ 10 µM,18%
same,inhibition at 30 µM,hr OpM; read-out: % inh/act @ 30 µM,19%
same,EC50/IC50,hr PR ag; hr PR ag,> 30 µM
same,inhibition at 10 µM,hr PR ag; read-out: % inh/act @ 10 µM,-2%
same,inhibition at 30 µM,hr PR ag; read-out: % inh/act @ 30 µM,0%
same,EC50/IC50,hr 5-HT2B antag; hr 5-HT2B antag,> 30 µM
same,inhibition at 10 µM,hr 5-HT2B antag; read-out: % inh/act @ 10 µM,22%
same,inhibition at 30 µM,hr 5-HT2B antag; read-out: % inh/act @ 30 µM,24%
same,EC50/IC50,hr ETa; hr ETa,> 30 µM
same,inhibition at 10 µM,hr ETa; read-out: % inh/act @ 10 µM,2%
same,inhibition at 30 µM,hr ETa; read-out: % inh/act @ 30 µM,13%
same,EC50/IC50,hr CCKa; hr CCKa,> 30 µM
same,inhibition at 10 µM,hr CCKa; read-out: % inh/act @ 10 µM,12%
same,inhibition at 30 µM,hr CCKa; read-out: % inh/act @ 30 µM,50%
